Source: patent US9695155B2, “Herbicidal substituted pyrimidinyloxy benzene compounds” (E. I. DU PONT DE NEMOURS AND COMPANY, priority 2013, dated 2017)

Legend:
[1] = test system: dayflower; test: Test E preemergence; format: in vivo, Commelina virginica; settings: for Dayflower, VA plant response rating: scale 0 to 100 (0 no effect, 100 complete control)
Summary of the method: (§1)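 Test chemicals formulated in a non-phytotoxic solvent mixture containing a surfactant were applied preemergence to seeds in silt loam soil or postemergence to plants at the 1- to 4-leaf stage in potting mix. After 14 to 21 days in a greenhouse, injury was visually rated against controls on a 0-100 scale (0 = no effect, 100 = complete control).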

[2] = test system: sandbur; test: Test E preemergence; format: in vivo, Cenchrus echinatus; settings: for Sandbur plant response rating: scale 0 to 100 (0 no effect, 100 complete control)
Summary of the method: as §1

[3] = test system: fall panicum; test: Test E preemergence; format: in vivo, Panicum dichotomiflorum; settings: for Panicum, Fall plant response rating: scale 0 to 100 (0 no effect, 100 complete control)
Summary of the method: as §1

[4] = test system: rice; test: Test C flooded paddy test; format: in vivo, Oryza sativa; settings: Flood, scale 0 to 100 (0 no effect, 100 complete control), 13 to 15 days
Summary of the method: (§2)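 In-water treatment: compound dosed into 3 cm flood over soil, water level unchanged throughout. Controls run alongside; visual assessment at day 13–15.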

[5] = test system: green foxtail; test: Test E preemergence; format: in vivo, Setaria viridis; settings: for Foxtail, Green plant response rating: scale 0 to 100 (0 no effect, 100 complete control)
From the text: (§3) Seeds of plant species selected from corn (Zea mays), soybean (Glycine max), velvetleaf (Abutilon theophrasti), lambsquarters (Chenopodium album), wild poinsettia (Euphorbia heterophylla), palmer pigweed (Amaranthus palmeri), waterhemp (common waterhemp, Amaranthus rudis), surinam grass (Brachiaria decumbens), large (Lg) crabgrass (Digitaria sanguinalis), Brazilian crabgrass (Digitaria horizontalis), fall panicum (Panicum dichotomiflorum), giant foxtail (Setaria faberii), green foxtail (Setaria viridis), goosegrass (Eleusine indica), johnsongrass (Sorghum halepense), ragweed (common ragweed, Ambrosia elatior), barnyardgrass (Echinochloa crus-galli), sandbur (southern sandbur, Cenchrus echinatus), arrowleaf sida (Sida rhombifolia), Italian ryegrass (Lolium multiflorum), dayflower (Virginia (VA) dayflower, Commelina virginica), field bindweed (Convolvulus arvensis), morningglory (Ipomoea coccinea), nightshade (eastern black nightshade, Solanum ptycanthum), kochia (Kochia scoparia), yellow nutsedge (Cyperus esculentus), cocklebur (common cocklebur, Xanthium strumarium), smartweed (ladysthumb smartweed, and hairy beggarticks (Bidens pilosa), were planted into a silt loam soil and treated preemergence with test chemicals formulated in a non-phytotoxic solvent mixture which included a surfactant.
(§4) At the same time, plants from these crop and weed species and also horseweed (Canada horseweed, Conyza canadensis), waterhemp_RES1, (ALS & Triazine resistant common waterhemp, Amaranthus rudis), and waterhemp_RES2, (ALS & HPPD resistant common waterhemp, Amaranthus rudis) were planted in pots containing Redi-Earth® planting medium (Scotts Company, 14111 Scottslawn Road, Marysville, Ohio 43041) comprising spaghnum peat moss, vermiculite, wetting agent and starter nutrients were treated with postemergence applications of test chemicals formulated in the same manner. Plants ranged in height from 2 to 18 cm for postemergence treatments (1- to 4-leaf stage). Treated plants and controls were maintained in a greenhouse for 14 to 21 days, after which time all species were compared to controls and visually evaluated. Plant response ratings, summarized in Table E, are based on a scale of 0 to 100 where 0 is no effect and 100 is complete control. A dash (-) response means no test result.

[6] = test system: Italian ryegrass; test: Test E preemergence; format: in vivo, Lolium multiflorum; settings: for Ryegrass, Italian plant response rating: scale 0 to 100 (0 no effect, 100 complete control)
From the text: as §3, §4

[7] = test system: large (Lg) crabgrass; test: Test E preemergence; format: in vivo, Digitaria sanguinalis; settings: for Crabgrass, Large plant response rating: scale 0 to 100 (0 no effect, 100 complete control)
From the text: as §3, §4

[8] = test system: barnyardgrass; test: Test C flooded paddy test; format: in vivo, Echinochloa crus-galli; settings: Flood, scale 0 to 100 (0 no effect, 100 complete control), 13 to 15 days
Summary of the method: as §2

[9] = test system: barnyardgrass; test: Test E preemergence; format: in vivo, Echinochloa crus-galli; settings: preemergence; for Barnyardgrass plant response rating: scale 0 to 100 (0 no effect, 100 complete control)
Summary of the method: as §1

[10] = test system: wild poinsettia; test: Test E preemergence; format: in vivo, Euphorbia heterophylla; settings: for Poinsettia, Wild plant response rating: scale 0 to 100 (0 no effect, 100 complete control)
From the text: as §3, §4

[11] = 125 g ai/ha, scale 0 to 100, 0 no effect, 100 complete control

SMILES: Fc1cnc(Oc2cccc(C(F)F)c2-n2cc(C(F)(F)F)cn2)nc1 [Compound 164]
- Dayflower, VA plant response rating ([1]; 16 g ai/ha): 0
- Dayflower, VA plant response rating ([1]; 31 g ai/ha): 20
- Dayflower, VA plant response rating ([1]; 62 g ai/ha): 65
- Plant response rating, Dayflower, VA [1, 11]: 90
- Sandbur plant response rating ([2]; 31 g ai/ha): 0
- Sandbur plant response rating ([2]; 62 g ai/ha): 0
- Plant response rating, Sandbur [2, 11]: 10
- Panicum, Fall plant response rating ([3]; 31 g ai/ha): 0
- Panicum, Fall plant response rating ([3]; 62 g ai/ha): 30
- Plant response rating, Panicum, Fall [3, 11]: 98
- Plant response rating, Rice ([4]; 31 g ai/ha): 0
- Plant response rating, Rice ([4]; 62 g ai/ha): 0
- Plant response rating, Rice ([4]; 125 g ai/ha): 0
- Plant response rating, Rice ([4]; 250 g ai/ha): 0
- Foxtail, Green plant response rating ([5]; 16 g ai/ha): 0
- Foxtail, Green plant response rating ([5]; 31 g ai/ha): 25
- Foxtail, Green plant response rating ([5]; 62 g ai/ha): 60
- Plant response rating, Foxtail, Green [5, 11]: 100
- Ryegrass, Italian plant response rating ([6]; 31 g ai/ha): 0
- Ryegrass, Italian plant response rating ([6]; 62 g ai/ha): 30
- Plant response rating, Ryegrass, Italian [6, 11]: 60
- Crabgrass, Large plant response rating ([7]; 16 g ai/ha): 35
- Crabgrass, Large plant response rating ([7]; 31 g ai/ha): 35
- Crabgrass, Large plant response rating ([7]; 62 g ai/ha): 75
- Plant response rating, Crabgrass, Large [7, 11]: 100
- Plant response rating, Barnyardgrass ([8]; 31 g ai/ha): 0
- Plant response rating, Barnyardgrass ([8]; 62 g ai/ha): 0
- Plant response rating, Barnyardgrass ([8]; 125 g ai/ha): 0
- Plant response rating, Barnyardgrass ([8]; 250 g ai/ha): 0
- Barnyardgrass plant response rating ([9]; 16 g ai/ha): 0
- Barnyardgrass plant response rating ([9]; 31 g ai/ha): 0
- Barnyardgrass plant response rating ([9]; 62 g ai/ha): 0
- Plant response rating, Barnyardgrass [9, 11]: 65
- Poinsettia, Wild plant response rating ([10]; 31 g ai/ha): 0
- Poinsettia, Wild plant response rating ([10]; 62 g ai/ha): 5
- Plant response rating, Poinsettia, Wild [10, 11]: 30
